Results from publication PMC10177510, “A Multicenter, Open-Label, Phase I/II Study of FN-1501 in Patients with Advanced Solid Tumors” (Cancers, 2023).

Tested on: advanced solid tumors
Experiment: Anti-tumor activity in patients (RECIST best response, PFS, OS)
Assay type: in vivo, human
Description: Among 64 pts enrolled in the trial, 16 failed screening and 48 (75%) were treated with FN-1501 at one of the dose levels tested. Eligible pts were ≥18 years of age with (a) relapsed or refractory AML that had exhausted or was ineligible for therapeutic options, or with ≥5% blasts in the bone marrow according to World Health Organization (WHO) 2016 criteria; or (b) solid tumors evaluable per RECIST v1.1 that had exhausted (or were ineligible for) therapeutic options likely to convey clinical benefit. Other inclusion criteria included Eastern Cooperative Oncology Group (ECOG) performance status (PS) of <2 and life expectancy ≥3 months. Pts with a clinically controlled central nervous system (CNS) tumor or metastasis and adequate organ function were eligible to participate. Ongoing use of strong CYP3A inhibitors or inducers was exclusionary unless participants were willing and able to change to use of an equivalent medication without this profile. Other exclusion criteria included current or recent major surgical procedures, anticancer therapy (chemotherapy, immunotherapy), biologic, live virus vaccine, or investigational therapy within 21 days prior to initiation of the study treatment. For patients in the AML cohort, acute promyelocytic leukemia (APML), chronic myelogenous leukemia in blast crisis (BCR-ABL), or active CNS leukemia were exclusionary.
Descriptive statistics were used for all safety, PK, and efficacy parameters. Data were summarized using descriptive statistics (number of pts, mean, median, standard deviation, minimum, and maximum) for continuous variables and using frequencies and percentages for discrete variables. Time-to-event variables were summarized using Kaplan–Meier methods and figures for the estimated median time.

## CN1CCN(Cc2ccc(NC(=O)c3[nH]ncc3Nc3ncnc4[nH]ccc34)cc2)CC1 [FN-1501]
40 mg/day, N = 4, ITT
  Progressive Disease, best RECIST response, n (%): 1 (25)
  Stable Disease, best RECIST response, n (%): 1 (25)
54 mg/day, N = 3, ITT
  Complete Response, best RECIST response, n (%): 0
  DCR: 0.0%
  Landmark Progression Free Survival Rate at 3 months (Table S6, Overall Survival): 66.7%
  Landmark Progression Free Survival Rate at 6 months (Table S6, Overall Survival): 0.0%
  Landmark Progression Free Survival Rate at 9 months (Table S6, Overall Survival): 0.0%
  Landmark Progression Free Survival Rate at 12 months (Table S6, Overall Survival): 0.0%
  Median overall survival: 3.2 months
  Median progression-free survival: 1.4 months
  ORR: 0.0%
  Partial Response, best RECIST response, n (%): 0
  Progression Free Survival Rate at 3 months: 0.0%
  Progression Free Survival Rate at 6 months: 0.0%
  Progression Free Survival Rate at 9 months: 0.0%
  Progression Free Survival Rate at 12 months: 0.0%
  Progressive Disease, best RECIST response, n (%): 2
  Stable Disease, best RECIST response, n (%): 0
72 mg/day, N = 3, ITT
  Complete Response, best RECIST response, n (%): 0
  DCR: 0.0%
  Median progression-free survival: 1.3 months
  ORR: 0.0%
  Partial Response, best RECIST response, n (%): 0
  Progression Free Survival Rate at 3 months: 0.0%
  Progression Free Survival Rate at 6 months: 0.0%
  Progression Free Survival Rate at 9 months: 0.0%
  Progression Free Survival Rate at 12 months: 0.0%
  Progressive Disease, best RECIST response, n (%): 3
  Stable Disease, best RECIST response, n (%): 0
96 mg/day, N = 5, ITT
  Complete Response, best RECIST response, n (%): 0
  DCR: 40.0%
  Landmark Progression Free Survival Rate at 3 months (Table S6, Overall Survival): 75.0%
  Landmark Progression Free Survival Rate at 6 months (Table S6, Overall Survival): 37.5%
  Landmark Progression Free Survival Rate at 9 months (Table S6, Overall Survival): 37.5%
  Landmark Progression Free Survival Rate at 12 months (Table S6, Overall Survival): 37.5%
  Median overall survival: 3.1 months
  Median progression-free survival: 2.7 months
  ORR: 0.0%
  Partial Response, best RECIST response, n (%): 0
  Progression Free Survival Rate at 3 months: 37.5%
  Progression Free Survival Rate at 6 months: 0.0%
  Progression Free Survival Rate at 9 months: 0.0%
  Progression Free Survival Rate at 12 months: 0.0%
  Progressive Disease, best RECIST response, n (%): 0
  Stable Disease, best RECIST response, n (%): 2 (40)
128 mg/day, N = 3, ITT
  Complete Response, best RECIST response, n (%): 0
  Median progression-free survival: 3.1 months
  ORR: 0.0%
  Partial Response, best RECIST response, n (%): 0
  Progression Free Survival Rate at 3 months: 66.7%
  Progression Free Survival Rate at 6 months: 0.0%
  Progression Free Survival Rate at 9 months: 0.0%
  Progression Free Survival Rate at 12 months: 0.0%
  Progressive Disease, best RECIST response, n (%): 1 (33)
  Stable Disease, best RECIST response, n (%): 1 (33)
170 mg/day, N = 4, ITT
  Complete Response, best RECIST response, n (%): 0
  DCR: 50.0%
  Median progression-free survival: 2.2 months
  ORR: 0.0%
  Partial Response, best RECIST response, n (%): 0
  Progression Free Survival Rate at 3 months: 33.3%
  Progression Free Survival Rate at 6 months: 33.3%
  Progression Free Survival Rate at 9 months: 33.3%
  Progression Free Survival Rate at 12 months: 0.0%
  Progressive Disease, best RECIST response, n (%): 1 (25)
  Stable Disease, best RECIST response, n (%): 2 (50)
226 mg/day, N = 4, ITT
  Complete Response, best RECIST response, n (%): 0
  DCR: 0.0%
  Landmark Progression Free Survival Rate at 3 months (Table S6, Overall Survival): 66.7%
  Landmark Progression Free Survival Rate at 6 months (Table S6, Overall Survival): 66.7%
  Landmark Progression Free Survival Rate at 9 months (Table S6, Overall Survival): 66.7%
  Landmark Progression Free Survival Rate at 12 months (Table S6, Overall Survival): 66.7%
  Median progression-free survival: 1.1 months
  ORR: 0.0%
  Partial Response, best RECIST response, n (%): 0
  Progression Free Survival Rate at 3 months: 0.0%
  Progression Free Survival Rate at 6 months: 0.0%
  Progression Free Survival Rate at 9 months: 0.0%
  Progression Free Survival Rate at 12 months: 0.0%
  Progressive Disease, best RECIST response, n (%): 1 (25)
  Stable Disease, best RECIST response, n (%): 0
1 patient, 40 mg/day, advanced endometrial cancer
  Duration of partial response: 4.2 months
Total, N = 48, ITT
  Complete Response, best RECIST response, n (%): 0
  DCR: 33.3%
  Landmark Progression Free Survival Rate at 3 months (Table S6, Overall Survival): 71.7%
  Median overall survival: 8.2 months
  Median progression-free survival: 1.8 months
  ORR: 2.1%
  Partial Response, best RECIST response, n (%): 1 (2)
  Progression Free Survival Rate at 3 months: 31.1%
  Progression Free Survival Rate at 6 months: 11.3%
  Progression Free Survival Rate at 9 months: 5.7%
  Progression Free Survival Rate at 12 months: 2.8%
  Progressive Disease, best RECIST response, n (%): 18
  Stable Disease, best RECIST response, n (%): 15 (31)
All doses
  Patients with progressive disease (PD) as best response by RECIST: 38%
  Patients with stable disease (SD) as best response by RECIST: 31%
  Remaining response-evaluable pts with PD: 67%
